Measurements taken from US20080312435A1, “Imine Compound” (TAISHO PHARMACEUTICAL CO., LTD., priority 2004, published 2008).
Where two headings read alike, the source gives them in different places.

How the values were obtained:
human CB2 receptor = target: T1, human CB2 receptor (Homo sapiens, UniProt P34972); assay: Human CB2 receptor binding inhibition test ([3H]CP-55,940, CHO membrane fractions)
T1 construct: expressed in transfected cells
Excerpt: Human CB2 Receptor Binding Inhibition Test
First, cDNA sequence (Munro et al., Nature, 1993, 365, 61-65) encoding a human CB2 receptor was inserted in the forward direction in an animal-cell expression vector, pTARGET Vector (manufactured by Promega) at a region downstream of a CMV promoter. Host cells CHO-DHFR(−) were transfected with the obtained expression vector with the aid of Lipofectamine (manufactured by Invitrogen) to obtain cells capable of stably expressing the CB2 receptor.
After the filtrate was washed with an assay buffer containing 0.1% bovine serum albumin, the radioactivity on the glass filter was measured by a liquid scintillation counter. Nonspecific binding was measured in the presence of 2.0 μM CP-55,940 (manufactured by Tocris). 50% inhibitory concentration (IC50 value) of the test compound for the specific binding was obtained.

[1] = [3H]CP-55,940, membrane fractions of CHO cells stably expressing human CB2 receptor, 25° C., 2 hours, read-out: CB2 IC50 (Inhibition of binding to human CB2 receptor)

T1 sequence (P34972 whole entry): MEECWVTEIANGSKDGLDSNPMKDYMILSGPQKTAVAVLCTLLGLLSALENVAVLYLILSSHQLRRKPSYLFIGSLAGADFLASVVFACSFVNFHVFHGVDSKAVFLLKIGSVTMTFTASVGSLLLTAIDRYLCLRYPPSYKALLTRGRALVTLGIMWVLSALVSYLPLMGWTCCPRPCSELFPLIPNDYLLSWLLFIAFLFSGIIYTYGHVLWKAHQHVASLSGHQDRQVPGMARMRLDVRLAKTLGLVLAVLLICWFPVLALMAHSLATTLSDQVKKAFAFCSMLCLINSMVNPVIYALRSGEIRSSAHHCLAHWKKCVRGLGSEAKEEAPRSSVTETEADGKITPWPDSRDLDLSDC

In the case of `COCCn1c(C)c(C)s/c1=N\C(=O)c1cccc(C(F)(F)F)c1`, the melting point is reported as 64 to 66 °C.

In the case of `CCn1c(C)c(C(C)C)s/c1=N\C(=O)c1cccc(C(F)(F)F)c1F`, the melting point is reported as 64 to 66 °C.

For `Cc1c(C(C)(C)C)s/c(=N\C(=O)c2cccc(C(F)(F)F)c2)n1C`, the melting point was 140 to 142 °C.

Molecule `O=C(/N=c1\ccccn1CCC1CC1)c1cccc(C(F)(F)F)c1F` has a melting point of 56 to 58 °C.

For `CCOCCn1cccc/c1=N\C(=O)c1cccc(C(F)(F)F)c1F`, the melting point was 104.5 to 105.5 °C.

`CCn1c(C)c(C(C)(C)C)s/c1=N\C(=O)c1cccc(C(F)(F)F)c1` showed a melting point of 158 to 160 °C.

`CCn1c(C)c(C(C)(C)C)s/c1=N\C(=O)CC1CCCC1` showed a melting point of 149 to 150 °C.

Molecule `CCn1c(C)c(C(C)(C)C)s/c1=N\C(=O)c1cc(C(F)(F)F)ccc1C` has a melting point of 63 to 65 °C.

Work on `Cc1c(C(C)(C)C)s/c(=N\C(=O)c2cccc(C(F)(F)F)c2)n1C(C)C` yielded a melting point of 135 to 137 °C.

`Cc1c(C(C)(C)C)s/c(=N\C(=O)c2ccc(Cl)cc2)n1CC1CC1` gave a melting point of 94 to 95 °C.

In the case of `Cc1c(C(C)(C)C)s/c(=N\C(=O)c2cccc(N3CCCCC3)c2)n1CC1CC1`, the melting point is reported as 89 to 90 °C.

`Cc1c(C(C)(C)C)s/c(=N\C(=O)c2cccc(N3CCN(C)CC3)c2)n1CC1CC1` showed a melting point of 126 to 128 °C.

`Cc1c(C(C)(C)C)s/c(=N\C(=O)c2cccc(C(N)=O)c2)n1CC1CC1` showed a melting point of 76 to 78 °C.

Work on `COC(=O)c1ccc(C(=O)/N=c2\sc(C(C)(C)C)c(C)n2CC2CC2)cc1` yielded a melting point of 122 to 123 °C.

In the case of `Cc1c(C(C)(C)C)s/c(=N\C(=O)c2ccc(C(=O)O)cc2)n1CC1CC1`, the melting point is reported as 196 to 197 °C.

With `Cc1c(CC(C)(C)C(C)(C)C)s/c(=N\C(=O)c2cc(C(F)(F)F)ccc2F)n1CC1CC1` the melting point was 88 to 89 °C.

Molecule `O=C(/N=c1\ccc(C(F)(F)F)cn1CC1CC1)c1cccc(C(F)(F)F)c1` has a melting point of 84 to 85 °C.

With `COCCNC1=C(C(=O)/N=c2\sc(C(C)(C)C)c(C)n2CC2CC2)CC(C(F)(F)F)C=C1` (centres unmarked) the melting point was 131 to 132 °C.

With `CCN(CC)c1ccc(C(F)(F)F)cc1C(=O)/N=c1\sc(C(C)(C)C)c(C)n1CC1CC1` the melting point was 131 to 133 °C.

In the case of `Cc1c(C(C)(C)C)s/c(=N\C(=O)c2cc(C(F)(F)F)ccc2N2CCCCC2)n1CC1CC1`, the melting point is reported as 138 to 140 °C.

For `CCc1ccnc(C(=O)/N=c2\sc(C(C)(C)C)c(C)n2CC2CC2)c1`, the melting point was 104 to 106 °C.

Molecule `Cc1c(C(C)(C)C)s/c(=N\C(=O)C(F)(F)C(F)F)n1CC1CC1` has a melting point of 93 to 94 °C.

With `COc1ccc(OC)c(CC(=O)/N=c2\sc(C(C)(C)C)c(C)n2CC2CC2)c1` the melting point was 89 to 91 °C.

`COCCn1c(C)c(C(C)(C)C)s/c1=N\C(=O)c1ccc(Cl)cc1F` showed a melting point of 68 to 69 °C.

Work on `Cc1c(C(C)(C)C)s/c(=N\C(=O)c2cccc(C(F)(F)F)c2)n1CCO` yielded a melting point of 147 to 149 °C.

In the case of `Cc1c(C(C)(C)C)s/c(=N\C(=O)c2cccc(C(F)(F)F)c2)n1CCN`, the melting point is reported as 76 to 78 °C.

`Cc1c(C(=O)N(C)C)s/c(=N\C(=O)c2cccc(C(F)(F)F)c2)n1CC1CC1` gave a melting point of 138 to 140 °C.

`Cc1c(C(=O)NCCN2CCOCC2)s/c(=N\C(=O)c2cccc(C(F)(F)F)c2)n1CC1CC1` showed a melting point of 156 to 158 °C.

For `Cc1s/c(=N\C(=O)c2cccc(C(F)(F)F)c2)n(CC2CC2)c1-c1ccccc1`, the melting point was 161 to 162 °C.

`Cc1c(C(C)C)o/c(=N\C(=O)c2cc(C(F)(F)F)ccc2F)n1CC1CC1` showed a melting point of 76 to 78 °C.

Work on `COc1ccc(C(F)(F)F)cc1C(=O)/N=c1\oc(C(C)C)c(C)n1CC1CC1` yielded a melting point of 118 to 120 °C.

`O=C(/N=c1\ccc(-c2ccccc2)cn1CC1CC1)c1cccc(C(F)(F)F)c1F` showed a melting point of 115 to 116 °C.

Molecule `O=C(/N=c1\sc2c(n1CC1CC1)CCCC2)c1cccc(C(F)(F)F)c1` has a melting point of 159 to 160 °C.

With `COc1ccc/c(=N\C(=O)c2cccc(C(F)(F)F)c2F)n1CC1CC1` the melting point was 126 to 128 °C.

Molecule `O=C(/N=c1\c(F)cc(F)cn1CC1CC1)c1cccc(C(F)(F)F)c1F` has a melting point of 69 to 71 °C.

Molecule `COc1ccc(C(=O)/N=c2\cc(C)cc(C)n2C)c(OC)c1` has a melting point of 117.5 to 118 °C.

Work on `Cc1c/c(=N\C(=O)c2cccc(C(F)(F)F)c2F)n(CCC2CC2)n1C` yielded a melting point of 97 to 98 °C.

For `CCOCCn1/c(=N/C(=O)c2cccc(C(F)(F)F)c2F)cc(C)n1C`, the melting point was 136 to 137 °C.

`Cc1c/c(=N\C(=O)c2cccc(C(F)(F)F)c2F)n(CCOC(C)C)n1C` showed a melting point of 88 to 90 °C.

For `Cn1c(C(C)(C)C)c/c(=N\C=O)n1CC1CC1`, the melting point was 122 to 124 °C.

`CC(C)c1ccccc1C(=O)/N=c1\cc(C(C)(C)C)n(C)n1CC1CC1` gave a melting point of 113 to 114 °C.

With `Cn1c(C(C)(C)C)c/c(=N\C(=O)c2ccccc2C(F)(F)F)n1CC1CC1` the melting point was 83 to 85 °C.

With `Cn1c(C(C)(C)C)c/c(=N\C(=O)c2cccc(Br)c2F)n1CC1CC1` the melting point was 127 to 128 °C.

Work on `Cc1cccc(C(=O)/N=c2\cc(C(C)(C)C)n(C)n2CC2CC2)c1Br` yielded a melting point of 153 to 155 °C.

With `Cn1c(C(C)(C)C)c/c(=N\C(=O)c2cc(Cl)ccc2Cl)n1CC1CC1` the melting point was 164 to 165 °C.

With `Cn1c(C(C)(C)C)c/c(=N\S(=O)(=O)c2cccc(C(F)(F)F)c2)n1CC1CC1` the melting point was 121 to 122 °C.

`CC(C)(C)c1nn(CC2CC2)/c(=N/C(=O)c2ccc(F)cc2C(F)(F)F)s1` showed a melting point of 76 to 78 °C.

For `CC(C)(C)c1nn(CC2CC2)/c(=N/C(=O)c2cnccc2Cl)s1`, the melting point was 62 to 63 °C.

Work on `CC(C)(C)c1nn(CC2CC2)/c(=N/C(=O)c2cc(C(F)(F)F)ccc2F)o1` yielded a melting point of 61 to 63 °C.

For `COc1ccc(C(F)(F)F)cc1C(=O)/N=c1\cc(C(C)(C)C)on1CC1CC1`, the melting point was 64 to 65 °C.

Molecule `CCn1cc(C)s/c1=N\C(=O)c1cccc(C(F)(F)F)c1F` has a melting point of 90 to 92 °C.

With `Cc1cn(CC2CC2)/c(=N\C(=O)c2cccnc2)s1` the melting point was 115 to 117 °C.

With `Cc1s/c(=N\C(=O)c2cccc(C(F)(F)F)c2F)n(C)c1C` the melting point was 182 to 183 °C.

With `Cc1s/c(=N\C(=O)c2ccccc2Cl)n(CC2CC2)c1C` the melting point was 125 to 127 °C.

With `CC(C)n1cccc/c1=N\C(=O)c1cccc(C(F)(F)F)c1F` the melting point was 86 to 88 °C.

For `Cc1s/c(=N\C(=O)c2ccc(F)cc2Br)n(CC2CC2)c1C`, the melting point was 144 to 146 °C.

`Cc1s/c(=N\C(=O)c2ccc(F)cc2C(F)(F)F)n(CC2CC2)c1C` gave a melting point of 143 to 144 °C.

With `CC[C@H](C(=O)/N=c1\sc(C)c(C)n1CC1CC1)c1ccccc1` (racemic) the melting point was 108 to 110 °C.

`Cn1c(C(C)(C)C)c/c(=N\C(=O)c2cccc(C(F)(F)F)c2Cl)n1CC1CC1` [Compound No. 476, N-(5-t-butyl-2-cyclopropylmethyl-1,2-dihydro-1-methylpyrazol-3-ylidene)-2-chloro-3-(trifluoromethyl)benzamide] showed an IC50 (human CB2 receptor) of 3.9 nM.

`CC(C)(C)c1c/c(=N\C(=O)c2cc(C(F)(F)F)ccc2F)n(CC2CC2)o1` [compound 54] showed an IC50 (human CB2 receptor; [1]) of 18.7 nM.

`CC(C)(C)c1c/c(=N\C(=O)c2cccc(C(F)(F)F)c2)n(CC2CC2)s1` [compound 57] gave an IC50 (human CB2 receptor; [1]) of 3.8 nM.

Work on `CCc1ccccc1C(=O)/N=c1\sc(C(C)(C)C)c(C)n1CC` [compound 150] yielded an IC50 (human CB2 receptor; [1]) of 15 nM.

With `CCn1c(C)c(C(C)(C)C)s/c1=N\C(=O)c1ccc(Cl)cc1OC` [compound 168] the IC50 (human CB2 receptor; [1]) was 5.4 nM.

With `Cc1c(C(C)(C)C)s/c(=N\C(=O)c2cccc(Cl)c2)n1CC1CC1` [compound 187] the IC50 (human CB2 receptor; [1]) was 17 nM.

Molecule `COc1ccccc1C(=O)/N=c1\sc(C(C)(C)C)c(C)n1CC1CC1` [compound 195] has an IC50 (human CB2 receptor; [1]) of 3.2 nM.

Work on `Cc1c(C(C)(C)C)s/c(=N\C(=O)c2ccccc2OC(F)(F)F)n1CC1CC1` [compound 197] yielded an IC50 (human CB2 receptor; [1]) of 2 nM.

Molecule `Cc1c(C(C)(C)C)s/c(=N\C(=O)c2cccc(C#N)c2)n1CC1CC1` [compound 211] has an IC50 (human CB2 receptor; [1]) of 12 nM.

Molecule `Cc1c(C(C)(C)C)s/c(=N\C(=O)c2cccc(F)c2F)n1CC1CC1` [compound 222] has an IC50 (human CB2 receptor; [1]) of 11.3 nM.

In the case of `Cc1c(C(C)(C)C)s/c(=N\C(=O)c2cccc(Cl)c2F)n1CC1CC1` [compound 225], the IC50 (human CB2 receptor; [1]) is reported as 3.9 nM.

`Cc1c(C(C)(C)C)s/c(=N\C(=O)c2cccc(C(F)(F)F)c2F)n1CC1CC1` [compound 250] gave an IC50 (human CB2 receptor; [1]) of 1.1 nM.

`Cc1c(C(C)(C)C)s/c(=N\C(=O)c2ccc(F)cc2C(F)(F)F)n1CC1CC1` [compound 255] gave an IC50 (human CB2 receptor; [1]) of 0.6 nM.

With `Cc1c(C(C)C)o/c(=N\C(=O)c2cccc(C(F)(F)F)c2F)n1CC1CC1` [compound 369] the IC50 (human CB2 receptor; [1]) was 1.4 nM.

`CCCCn1c(C)c(C(C)(C)C)s/c1=N\S(=O)(=O)c1cccc2ccccc12` [compound 387] showed an IC50 (human CB2 receptor; [1]) of 13.7 nM.

With `Cc1c(C(C)(C)C)s/c(=N\S(=O)(=O)c2cccc(Cl)c2Cl)n1CC1CC1` [compound 399] the IC50 (human CB2 receptor; [1]) was 6.8 nM.

`Cc1c(C(C)(C)C)s/c(=N\S(=O)(=O)c2c(Cl)cccc2Cl)n1CC1CC1` [compound 402] gave an IC50 (human CB2 receptor; [1]) of 15.4 nM.

Work on `Cc1cc(C)c(S(=O)(=O)/N=c2\sc(C(C)(C)C)c(C)n2CC2CC2)c(C)c1` [compound 410] yielded an IC50 (human CB2 receptor; [1]) of 7.1 nM.

For `CC#CCn1c(C)c(C(C)(C)C)s/c1=N\S(=O)(=O)c1cccc2ccccc12` [compound 427], the IC50 (human CB2 receptor; [1]) was 5.9 nM.

For `Cc1c(C(=O)/N=c2\cc(C(C)(C)C)n(C)n2CC2CC2)cccc1C(F)(F)F` [compound 470], the IC50 (human CB2 receptor; [1]) was 10.6 nM.

Work on `Cn1c(C(C)(C)C)c/c(=N\C(=O)c2cccc(C(F)(F)F)c2F)n1CC1CCC1` [compound 482, N-(5-t-butyl-2-cyclobutylmethyl-1,2-dihydro-1-methylpyrazol-3-ylidene)-2-fluoro-3-(trifluoromethyl)benzamide] yielded an IC50 (human CB2 receptor; [1]) of 1.2 nM.

With `Cn1c(C(C)(C)C)c/c(=N\C(=O)c2cccc(C(F)(F)F)c2F)n1CC1CCCC1` [compound 485] the IC50 (human CB2 receptor; [1]) was 1.1 nM.
